The values that follow come from patent US11912718B2, “Solid forms of a thienopyrimidinedione ACC inhibitor and methods for production thereof” (Gilead Apollo, LLC, priority 2016, dated 2024).

Series [1] can be described thus: Dynamic vapor sorption (DVS). Particulars: for state or form of the material after the DVS experiment: post DVS, XRPD. In kind it is physicochemical. The source says:
For DVS analysis as discussed in Example 8, approximately 10 milligrams of sample was placed into a mesh vapor sorption balance pan and loaded into a DVS-1 dynamic vapor sorption balance (Surface Measurement Systems). The sample was subjected to a ramping profile from 0-90% relative humidity (RH) at 10% increments, maintaining the sample at each step until a stable weight had been achieved (99.5% step completion). After completion of the sorption cycle, the sample was dried using the reverse procedure, lowering the RH to 0%. The weight change during the sorption/desorption cycles was plotted.
For Examples 2, 5, 7, 9, and 13 to 18, hygroscopicity was studied using dynamic vapor sorption (DVS, TA Q5000 SA, TA Instruments, New Castle, Del. or DVS, DVS Intrinsic, Surface Measurement Systems, London, UK). A sample (2-20 mg) was placed in an aluminum DVS pan and loaded on the sample side of the twin pan balance. The water sorption and desorption were studied as a function of relative humidity (RH) at 25° C. In 10% RH increments, the relative humidity was increased from 5% RH to 95% RH and then decreased back to 5%. […] Data analysis was performed using Universal Analysis 2000 Version 4.7A (TA Instruments, New Castle, Del.) for TA DVS runs and Microsoft Excel for SMS DVS runs.

A short description of series [2]: Aqueous solubility. It is filed as physicochemical. Here is the method:
Purity and concentration analyses were carried out using the following method: […]

Series [3] can be described thus: Competitive slurrying of crystal forms. In kind it is physicochemical.
Series [4] can be described thus: Log P and Log D determination (potentiometric). It is filed as physicochemical. The following applies: octanol/water, pH 7.4. The protocol: Log P analysis was performed using a potentiometric (pH-metric) method. The sample was titrated in various ratios of octanol/water in two titrations covering the pH range from 1.9 to 12.0 at concentrations of 1.0 to 0.6 mM. The shift of the aqueous pKa in the presence of octanol was used to determine log P of the neutral and anionic species. From this information a lipophilicity profile was constructed, such that that log D at a given pH could be determined.

In series [5] the test system is ACC2. The following applies: enzyme isolated from rat, mouse, monkey and human; cited from earlier work.
Series [6] relates to ACC1. The following applies: enzyme isolated from rat, mouse, monkey and human; cited from earlier work.
Series [7] has as its target ACC1 (Homo sapiens, UniProt Q13085). Put plainly: Inhibition of ACC1 by metabolites of Compound 1. In kind it is biochemical.
Series [8] can be described thus: Storage stability at 40° C. and 75% RH. The following applies: 7 days at 40° C. and 75% RH. It is filed as physicochemical. Here is the method: 100 milligrams of Form IV of Compound 1, prepared according to the method of Example 5, was heated to 80° C. in an oven. Form VII was confirmed to be a desolvated form of Form IV, produced by drying the methanol solvate Form IV. […] Differential scanning calorimetry (DSC) results (FIG. 40) were consistent with thermogravimetric analysis. […] (peak at 141.4° C.), with the peak of the exotherm at 151.6° C. […] (peak at 195.0° C.). A smaller endotherm with a peak at 207.0° C. was likely to indicate formation of a higher melting crystalline form. […] The uptake between 40 and 70% RH could potentially be indicative of hydrate formation (tentatively assigned the name Form IX). […] NMR and IR data confirmed the structural integrity of Compound 1 present.

Series [9] is described as follows: Prolonged exposure to water (XRPD). In kind it is physicochemical.
The mark [10] stands for this setting: acetone, acetonitrile:water (10%), ethanol, ethyl acetate, ambient temperature and 60° C., XRPD and DSC.

SMILES strings stand for the structures. ≈ marks a conversion by molar mass, not a printed value.

In general, solubility refers to how much of the substance goes into solution per volume. For orientation: logD means the decadic logarithm of the distribution of all forms, ionised or not, between an organic phase and buffer at a given pH. For the compound `COc1ccccc1[C@H](Cn1c(=O)n(C(C)(C)C(=O)O)c(=O)c2c(C)c(-c3ncco3)sc21)OC1CCOCC1` [Form I], the “weight gain (moisture sorption)” value in [1] (at about 95% RH) was about 0.45%. In [1], the “state or form of the material after the DVS experiment” value is listed as “had not changed forms”. In addition, the solubility in series [2] (aqueous medium, aqueous buffer, pH 5.5 and below) is under 10 µg/mL. The relative thermodynamic stability result in series [3] (between 22-60° C.) is on record as “more thermodynamically stable form”. In [4], this compound gave a logD of 1.06.
A word on the IC50: it is the concentration needed to halve the response being measured. As to `O=C(c1c2ccccc2cc2ccccc12)N1CCC(N2CCC[C@@H](C(=O)N3CCOCC3)C2)CC1` [CP-640186], the IC50 in series [5] and in [6] was about 60 nM each time.
For the compound `Cc1c(-c2ncco2)sc2c1c(=O)n(C(C)(C)C(=O)O)c(=O)n2C[C@H](OC1CCOCC1)c1ccccc1O` [M-CH3 metabolite], the concentration for half-maximal inhibition (IC50) in series [7] is 22 nM.
With `COc1ccccc1[C@H](Cn1c(=O)n(C(C)(C)C(=O)OC2OC(C(=O)O)C(O)C(O)C2O)c(=O)c2c(C)c(-c3ncco3)sc21)OC1CCOCC1` (stereo partly drawn) [M+glucuronide conjugate], the IC50 in series [7] amounted to 5 nM.
Consider `COc1ccccc1[C@H](Cn1c(=O)n(C(C)(C)C(=O)O)c(=O)c2c(C)c(-c3ncco3)sc21)OC1CCOCC1` [Form VII], for which the “water uptake (DVS)” value in [1] (at 90% RH) is over 4%. Besides, the “state or form of the material after the DVS experiment” value in series [1] was “no change in form”. The same compound yielded a solubility in [2] (water) of 109 µg/mL (≈ 191 µM). Besides, the “result of competitive slurrying with Form I” value in [3] (setting [10]) is on record as “conversion to Form I”. Besides, in [8], the “chemical and physical stability on storage” value is “chemically and physically stable”; the purity after storage came out at 99.85%. Moreover, in series [9], the “form change on prolonged exposure to water” value was “conversion of Form VII to Form I”.
As for `COc1ccccc1[C@H](Cn1c(=O)n(C(C)(C)C(=O)O)c(=O)c2c(C)c(-c3ncco3)sc21)OC1CCOCC1` [Form VIII], the “result of competitive slurrying with Form I” value is on record as “conversion to Form I” in series [3] (1:1 ratio in 6:4 ethanol:water, room temperature, about two weeks, XRPD) and “conversion to Form I” in [3] (setting [10]).
